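Exposure lasted 48 hours, with cells grown in 96-well plates and compounds tested at five concentrations. TGI is the concentration that stops growth completely.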 Where only a bound is given, the exact number is not on record here.

Holding throughout (assay): growth of human tumour cells (NCI), 48 h
Assay [1] deals with SK-MEL-5 melanoma.
In assay [2] the test system is RXF 393 renal.
For assay [3], the system named is CCRF-CEM leukemia.
Assay [4] relates to NCI-H522 lung.
For assay [5], the system named is SK-MEL-2 melanoma.
Assay [6] concerns K-562 leukemia.
The test system of assay [7] is NCI/ADR-RES ovarian.
Assay [8] relates to MOLT-4 leukemia.
Assay [9] deals with HL-60(TB) leukemia.
For assay [10], the system named is SN12C renal.
Assay [11] concerns NCI-H226 lung.
For assay [12], the system named is U251 CNS.
Assay [13] deals with SF-295 CNS.
Assay [14] relates to UO-31 renal.
The test system of assay [15] is LOX IMVI melanoma.
Assay [16] has as its system RPMI-8226 leukemia.
Assay [17] concerns HCT-15 colon.
Assay [18] has as its system SK-OV-3 ovarian.
Assay [19] has as its system T-47D breast.

On to `O=C(NN1C(=O)c2ccccc2C1=O)c1ccccc1Nc1ccccc1C(=O)NN1C(=O)c2ccccc2C1=O`, for which the TGI in assay [1], in assay [2], in assay [3], in assay [4], in assay [5] and in assay [6] was greater than 100 µM each time. Besides, the TGI in assay [7], in assay [8], in assay [9], in assay [10], in assay [11] and in assay [12] was greater than 100 µM throughout. Further, the TGI in assay [13], in assay [14], in assay [15], in [16] and in [17] was greater than 100 µM each time.

For the compound `O=S1c2ccc(Cl)cc2CC(SSC2Cc3cc(Cl)ccc3S(=O)c3ccccc32)c2ccccc21` (stereo not drawn), the TGI in assay [1], in assay [2], in assay [3], in assay [4], in assay [5] and in assay [6] was greater than 100 µM in each case. For the same compound, the TGI in assay [8], in assay [9], in assay [10], in assay [18], in [11] and in [12] was greater than 100 µM each time. Moreover, the TGI in assay [13], in assay [14], in assay [15] and in assay [16] was greater than 100 µM each time.

For `CN(CCO)c1nc2c(c(=O)[nH]1)CNCC2`, the TGI in [1], in [2], in assay [3], in [4], in assay [5] and in assay [6] was greater than 100 µM throughout. Further, the TGI in assay [8], in [9], in assay [10], in assay [18], in [11] and in assay [12] was greater than 100 µM in each case. Further, the TGI in [13], in assay [14], in assay [15], in assay [16] and in [17] was greater than 100 µM in each case.

Turning to `CCOC(=O)C1C(c2ccc([N+](=O)[O-])cc2)NC(c2ccc([N+](=O)[O-])cc2)C(C(=O)OC)S1(=O)=O` (stereo not drawn), the TGI in [2], in assay [3], in assay [4], in assay [5], in [6] and in assay [8] was greater than 100 µM throughout. Also, the TGI in assay [9], in [10], in assay [18], in assay [11], in assay [12] and in assay [13] was greater than 100 µM in each case. In addition, the TGI in [14], in assay [15], in [16] and in assay [17] was greater than 100 µM in each case.

As for `COc1ccc(-c2cc(-c3ccco3)c(C#N)c(=S)n2C2OC(CO)C(O)C(O)C2O)cc1` (stereo not drawn), the TGI in assay [1], in [2], in assay [3], in assay [4], in assay [5] and in [6] was greater than 100 µM throughout. Further, the TGI in [7], in [8], in [10], in assay [18], in assay [11] and in [12] was greater than 100 µM each time. Moreover, the TGI in assay [13], in [14], in assay [15], in [16] and in [17] was greater than 100 µM in each case.

Turning to `CCOC(=O)/C(=C\NC(C)(C)C)c1nc2ccccc2o1`, the TGI in assay [1] is 26 µM; in assay [2], 67.1 µM; in assay [3] it was 54.6 µM; in [4], greater than 100 µM; in assay [7] it was greater than 100 µM; in [9], 19.1 µM. The TGI was greater than 100 µM in assay [10]; greater than 100 µM in [18]; 63.4 µM in assay [11]; greater than 100 µM in assay [13]; 65.4 µM in assay [15]; 50.8 µM in assay [16]. The same compound displayed a TGI in [17] greater than 100 µM.

For the compound `CN1CCN(C(=S)N(C)C(=O)c2cccs2)CC1`, the TGI in assay [1], in [2], in assay [3], in [4], in assay [5] and in assay [6] was greater than 100 µM throughout. Besides, the TGI in assay [8], in [10], in [19], in [11], in assay [12] and in [13] was greater than 100 µM in each case. Further, the TGI in [14], in assay [15], in assay [16] and in assay [17] was greater than 100 µM each time.

Consider `COc1ccc(-n2cnc3c(NC(C)(C)C(=O)O)ncnc32)cc1`, for which the TGI in assay [1], in assay [3], in [5], in [6], in assay [7] and in [8] was greater than 100 µM throughout. Besides, the TGI in [10], in assay [18], in assay [19], in [11], in assay [12] and in [13] was greater than 100 µM each time. In addition, the TGI in assay [14], in assay [15], in assay [16] and in [17] was greater than 100 µM throughout.
